From ChEMBL document CHEMBL4665865, “New series of isoxazole derivatives targeting EGFR-TK: Synthesis, molecular modeling and antitumor evaluation” (Bioorg Med Chem, 2020)

Assays:
[1] = tested on: MCF7; experiment: Induction of apoptosis in human MCF-7 cells assessed as increase in caspase-9 level after 24 hrs by Western blot analysis relative to untreated control; type: functional
[2] = tested on: HepG2; experiment: Induction of cell cycle arrest in human HepG2 cells assessed as accumulation of cells at G2/M phase at antiproliferative IC50 by PI staining based flow cytometric analysis (reference value: 14.09%); type: functional
[3] = target: Casein kinase II subunit alpha (Homo sapiens, UniProt P68400); experiment: Inhibition of CK2 alpha (unknown origin) relative to control
Casein kinase II subunit alpha, sequence (P68400 whole entry): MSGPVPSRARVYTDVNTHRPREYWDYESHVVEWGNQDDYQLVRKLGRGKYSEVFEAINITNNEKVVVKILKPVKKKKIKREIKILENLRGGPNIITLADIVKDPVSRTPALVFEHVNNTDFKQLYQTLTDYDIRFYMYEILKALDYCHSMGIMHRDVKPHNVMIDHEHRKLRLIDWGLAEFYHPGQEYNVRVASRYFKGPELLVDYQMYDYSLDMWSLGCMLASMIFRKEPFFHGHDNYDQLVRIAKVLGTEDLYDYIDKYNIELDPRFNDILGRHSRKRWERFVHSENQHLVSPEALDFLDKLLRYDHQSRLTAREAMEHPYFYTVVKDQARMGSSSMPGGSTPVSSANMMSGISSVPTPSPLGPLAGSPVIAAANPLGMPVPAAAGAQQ

[4] = tested on: MCF7; experiment: Induction of cell cycle arrest in human MCF7 cells assessed as accumulation of cells at G2/M phase at antiproliferative IC50 by PI staining based flow cytometric analysis (reference value: 10.95%); type: functional
[5] = tested on: HepG2; experiment: Antitumor activity against human HepG2 cells assessed as inhibition of cell viability by MTT assay; type: functional, cell-based
[6] = tested on: HCT-116; experiment: Induction of apoptosis in human HCT-116 cells assessed as decrease in Bcl-2 protein expression by Western blot analysis relative to untreated control; type: functional
[7] = tested on: MCF7; experiment: Induction of cell cycle arrest in human MCF7 cells assessed as aggregates at antiproliferative IC50 by PI staining based flow cytometric analysis (reference value: 2.11%); type: functional; conditions: time 24 hrs
[8] = tested on: HCT-116; experiment: Induction of apoptosis in human HCT-116 cells assessed as late apoptotic cells at antiproliferative IC50 incubated for 24 hrs by annexin V FITC and propidium iodide staining based flow cytometry (reference value: 0.19 %); type: functional
[9] = target: Epidermal growth factor receptor (Homo sapiens, UniProt P00533); experiment: Inhibition of EGFR-TK (unknown origin) relative to control
Epidermal growth factor receptor, sequence (P00533 whole entry): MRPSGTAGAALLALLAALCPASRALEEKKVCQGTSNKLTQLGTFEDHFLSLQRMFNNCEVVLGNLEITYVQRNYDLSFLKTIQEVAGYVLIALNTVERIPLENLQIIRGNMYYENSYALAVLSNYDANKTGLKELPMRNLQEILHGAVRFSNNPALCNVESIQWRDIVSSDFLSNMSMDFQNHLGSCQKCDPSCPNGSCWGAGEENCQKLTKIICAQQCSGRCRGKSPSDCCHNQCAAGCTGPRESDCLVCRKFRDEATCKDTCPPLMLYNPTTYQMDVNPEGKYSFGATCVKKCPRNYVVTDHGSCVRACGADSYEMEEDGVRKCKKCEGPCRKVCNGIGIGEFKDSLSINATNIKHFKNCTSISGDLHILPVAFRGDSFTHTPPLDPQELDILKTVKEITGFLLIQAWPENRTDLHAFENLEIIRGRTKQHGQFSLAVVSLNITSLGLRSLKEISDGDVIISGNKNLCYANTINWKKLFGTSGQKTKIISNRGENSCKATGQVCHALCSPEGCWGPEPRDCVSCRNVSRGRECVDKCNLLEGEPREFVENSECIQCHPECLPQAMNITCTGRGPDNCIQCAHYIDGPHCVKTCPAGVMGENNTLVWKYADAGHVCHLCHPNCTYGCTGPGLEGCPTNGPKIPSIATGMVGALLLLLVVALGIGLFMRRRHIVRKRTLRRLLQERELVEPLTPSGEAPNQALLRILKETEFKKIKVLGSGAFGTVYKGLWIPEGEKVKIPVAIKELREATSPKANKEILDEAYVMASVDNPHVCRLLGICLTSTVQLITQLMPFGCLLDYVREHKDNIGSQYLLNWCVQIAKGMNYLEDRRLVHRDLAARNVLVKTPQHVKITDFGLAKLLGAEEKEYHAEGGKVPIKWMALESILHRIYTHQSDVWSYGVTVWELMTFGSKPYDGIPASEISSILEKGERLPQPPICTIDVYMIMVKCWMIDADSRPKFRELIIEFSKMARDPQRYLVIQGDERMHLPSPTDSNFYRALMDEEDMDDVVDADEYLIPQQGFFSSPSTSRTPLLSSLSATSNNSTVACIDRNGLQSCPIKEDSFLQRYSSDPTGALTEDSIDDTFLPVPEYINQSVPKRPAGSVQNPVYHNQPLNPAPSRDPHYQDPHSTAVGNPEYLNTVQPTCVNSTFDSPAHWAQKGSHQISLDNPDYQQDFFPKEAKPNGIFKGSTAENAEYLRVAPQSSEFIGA

[10] = tested on: HCT-116; experiment: Induction of apoptosis in human HCT-116 cells assessed as necrotic cells at antiproliferative IC50 incubated for 24 hrs by annexin V FITC and propidium iodide staining based flow cytometry (reference value: 0.59 %); type: functional
[11] = tested on: HCT-116; experiment: Antitumor activity against human HCT-116 cells assessed as inhibition of cell viability by MTT assay; type: functional, cell-based
[12] = target: Tubulin; experiment: Inhibition of tubulin polymerization (unknown origin) relative to control; type: protein-complex assay, Homo sapiens

IC50 [3]: 0.171 µM
IC50 [5]: 6.86 µM
IC50 [9]: 0.054 µM
IC50 [11]: 7.72 µM
IC50 [12]: 3.61 µM
Structure (SMILES): Cc1cc(NC2=NC(=O)/C(=C\c3c4ccccc4cc4ccccc34)S2)no1
fold change (FC) [1]: 4.7
Activity [2]: 36.93%
Activity [4]: 29.3%
fold change (FC) [6]: 0.64
Activity [7]: 2.11%
Activity [8]: 15.19%
Activity [10]: 2.27%
